Test results: US10722514B2 (FLX Bio, Inc., priority 2017, dated 2020)
Where a name gives a salt, the structure may show the parent alone. Read-outs that look alike come from different tables or passages of the source.

Molecular target: T1, recombinant full-length USP7 (Homo sapiens, UniProt Q93009)
T1 construct: A 25 μl reaction volume containing recombinant full-length USP7 (62 pM)
Assay: USP7-mediated ubiquitin-rhodamine cleavage assay
Assay type: biochemical
Conditions: recombinant full-length USP7 62 pM, ubiquitin-rhodamine 100 nM, 1 hour reaction at room temperature
Summary of the method: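 Rhodamine fluorescence read-out after acetic acid stop; IC50 by 4-parameter nonlinear regression. Enzyme at 62 pM, substrate ubiquitin-rhodamine 100 nM final, 1 h at room temperature in the dark, after 30 min compound preincubation. Buffer: HEPES pH 7.3, NaCl, TCEP, BSA; 1% DMSO.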

[1] = 30-minute incubation with compound, read-out: Potency: USP7 IC50
[2] = 30-minute pre-incubation, read-out: Potency (USP7 IC50)

T1 sequence (Q93009 whole entry): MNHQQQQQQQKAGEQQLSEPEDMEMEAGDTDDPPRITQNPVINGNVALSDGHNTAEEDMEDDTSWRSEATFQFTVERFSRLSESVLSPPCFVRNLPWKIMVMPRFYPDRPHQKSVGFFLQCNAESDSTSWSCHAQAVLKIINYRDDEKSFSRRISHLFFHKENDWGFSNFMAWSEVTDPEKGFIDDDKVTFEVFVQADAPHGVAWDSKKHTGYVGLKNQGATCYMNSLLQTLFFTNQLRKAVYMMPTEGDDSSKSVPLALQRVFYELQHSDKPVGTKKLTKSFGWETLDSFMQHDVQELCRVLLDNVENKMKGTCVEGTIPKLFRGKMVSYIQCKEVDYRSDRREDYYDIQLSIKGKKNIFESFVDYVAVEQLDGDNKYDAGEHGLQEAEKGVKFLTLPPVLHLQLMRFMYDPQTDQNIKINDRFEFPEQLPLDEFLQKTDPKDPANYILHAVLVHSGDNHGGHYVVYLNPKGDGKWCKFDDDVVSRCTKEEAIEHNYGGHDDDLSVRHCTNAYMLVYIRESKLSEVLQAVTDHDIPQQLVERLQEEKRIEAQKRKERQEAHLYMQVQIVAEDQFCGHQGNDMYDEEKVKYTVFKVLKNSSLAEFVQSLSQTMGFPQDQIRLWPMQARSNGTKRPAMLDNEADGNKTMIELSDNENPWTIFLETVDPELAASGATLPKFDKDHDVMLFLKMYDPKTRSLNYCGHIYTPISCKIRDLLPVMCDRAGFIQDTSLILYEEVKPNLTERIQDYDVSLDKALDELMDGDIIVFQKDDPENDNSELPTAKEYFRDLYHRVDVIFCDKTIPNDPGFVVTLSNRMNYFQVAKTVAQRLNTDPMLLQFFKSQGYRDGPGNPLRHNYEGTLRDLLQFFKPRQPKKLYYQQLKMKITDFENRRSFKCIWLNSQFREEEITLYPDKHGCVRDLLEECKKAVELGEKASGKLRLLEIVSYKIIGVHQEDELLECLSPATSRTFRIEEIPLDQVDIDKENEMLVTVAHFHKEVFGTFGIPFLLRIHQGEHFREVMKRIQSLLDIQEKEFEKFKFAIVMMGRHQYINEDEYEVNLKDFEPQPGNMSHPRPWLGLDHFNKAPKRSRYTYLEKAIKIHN

Row | SMILES | IC50 [1] [µM] | IC50 [2] [µM]
1 | Cc1cc(Cl)cc(-c2ccnc3cc(CN4C(=O)C5C(C4=O)C5(C)C)sc23)c1O[C@@H]1CNC[C@@H]1C(F)F (stereo partly drawn) [Example 389, 3-[[7-[5-chloro-2-[(3S,4S)-4-(difluoromethyl)pyrrolidin-3-yl]oxy-3-methyl-phenyl]thieno[3,2-b]pyridin-2-yl]methyl]-6,6-dimethyl-3-azabicyclo[3.1.0]hexane-2,4-dione dihydrochloride] | < 1 | –
2 | Cc1cc(Cl)cc(-c2ncnc3cc(CN4C(=O)C5C(C4=O)C5(C)C)sc23)c1O[C@@H]1C[C@@H]2C[C@H]1N(C)C2 (stereo partly drawn) [Example 390, 3-[[4-[5-chloro-3-methyl-2-[[(1S,4R,5R)-3-methyl-3-azabicyclo[2.2.1]heptan-5-yl]oxy]phenyl]thieno[3,2-d]pyrimidin-6-yl]methyl]-6,6-dimethyl-3-azabicyclo[3.1.0]hexane-2,4-dione dihydrochloride] | < 1 | –
3 | Cc1cc(Cl)cc(-c2ccnc3cc(CN4C(=O)C5C(C4=O)C5(C)C)sc23)c1O[C@@H]1CCNC[C@@H]1F (stereo partly drawn) [Example 391, 3-[[7-[5-chloro-2-[[(3S,4R)-3-fluoro-4-piperidyl]oxy]-3-methyl-phenyl]thieno[3,2-b]pyridin-2-yl]methyl]-6,6-dimethyl-3-azabicyclo[3.1.0]hexane-2,4-dione; 2,2,2-trifluoroacetic acid] | < 1 | –
4 | Cc1cc(Cl)cc(-c2ccnc3cc(CN4C(=O)C5C(C4=O)C5(C)C)sc23)c1O[C@H]1CCNC[C@H]1F (stereo partly drawn) [Example 392, 3-[[7-[5-chloro-2-[[(3R,4S)-3-fluoro-4-piperidyl]oxy]-3-methyl-phenyl]thieno[3,2-b]pyridin-2-yl]methyl]-6,6-dimethyl-3-azabicyclo[3.1.0]hexane-2,4-dione; 2,2,2-trifluoroacetic acid] | < 1 | –
5 | Cc1cc(Cl)cc(-c2ccnc3cc(CN4C(=O)C5C(C4=O)C5(C)C)sc23)c1OC1(C)CNC1 (centres unmarked) [Example 393, 3-[[7-[5-chloro-3-methyl-2-(3-methylazetidin-3-yl)oxy-phenyl]thieno[3,2-b]pyridin-2-yl]methyl]-6,6-dimethyl-3-azabicyclo[3.1.0]hexane-2,4-dione dihydrochloride] | < 1 | –
6 | Cc1cc(Cl)cc(-c2ccnc3cc(CN4C(=O)C5C(C4=O)C5(C)C)sc23)c1O[C@H]1CC[C@H](N)C1 (stereo partly drawn) [Example 394, 3-[[7-[2-[(1S,3S)-3-aminocyclopentoxy]-5-chloro-3-methyl-phenyl]thieno[3,2-b]pyridin-2-yl]methyl]-6,6-dimethyl-3-azabicyclo[3.1.0]hexane-2,4-dione dihydrochloride] | < 1 | –
7 | Cc1cc(Cl)cc(-c2ncnc3cc(CN4C(=O)C5C(C4=O)C5(C)C)sc23)c1OCC1(C)CNC1 (centres unmarked) [Example 395, 3-[[4-[5-chloro-3-methyl-2-[(3-methylazetidin-3-yl)methoxy]phenyl]thieno[3,2-d]pyrimidin-6-yl]methyl]-6,6-dimethyl-3-azabicyclo[3.1.0]hexane-2,4-dione] | < 1 | –
8 | Cc1cc(Cl)cc(-c2ccnc3cc([C@H](C)N4C(=O)C5C(C4=O)C5(C)C)sc23)c1OC1CCC(C)NC1 (stereo partly drawn) [Example 396, 3-[(1S)-1-[7-[5-chloro-3-methyl-2-[(6-methyl-3-piperidyl)oxy]phenyl]thieno[3,2-b]pyridin-2-yl]ethyl]-6,6-dimethyl-3-azabicyclo[3.1.0]hexane-2,4-dione; 2,2,2-trifluoroacetic acid] | < 1 | –
9 | Cc1cc(Cl)cc(-c2ccnc3cc([C@@H](C)N4C(=O)C5C(C4=O)C5(C)C)sc23)c1OC1CCC(C)NC1 (stereo partly drawn) [Example 397, 3-[(1R)-1-[7-[5-chloro-3-methyl-2-[(6-methyl-3-piperidyl)oxy]phenyl]thieno[3,2-b]pyridin-2-yl]ethyl]-6,6-dimethyl-3-azabicyclo[3.1.0]hexane-2,4-dione; 2,2,2-trifluoroacetic acid] | < 1 | –
10 | Cc1cc(Cl)cc(-c2ccnc3cc(CN4C(=O)C5C(C4=O)C5(C)C)sc23)c1O[C@H]1CC[C@H](C)NC1 (stereo partly drawn) [Example 399, 3-[[7-[5-chloro-3-methyl-2-[[(3S,6S)-6-methyl-3-piperidyl]oxy]phenyl]thieno[3,2-b]pyridin-2-yl]methyl]-6,6-dimethyl-3-azabicycllo[3.1.0]hexane-2,4-dione; 2,2,2-trifluoroacetic acid] | < 1 | –
11 | Cc1cc(Cl)cc(-c2ccnc3cc(CN4C(=O)C5C(C4=O)C5(C)C)sc23)c1OCC1(C)CNC1 (centres unmarked) [Example 400, 3-[[7-[5-chloro-3-methyl-2-[(3-methylazetidin-3-yl)methoxy]phenyl]thieno[3,2-b]pyridin-2-yl]methyl]-6,6-dimethyl-3-azabicyclo[3.1.0]hexane-2,4-dione] | < 1 | –
12 | CCOC(=O)NN(Cc1cc2nccc(-c3cc(Cl)cc(C)c3O[C@@H]3CCNC[C@@H]3C)c2s1)C(=O)OCC [Example 402, ethyl N-[[7-[5-chloro-3-methyl-2-[[(3S,4R)-3-methyl-4-piperidyl]oxy]phenyl]thieno[3,2-b]pyridin-2-yl]methyl]-N-(ethoxycarbonylamino)carbamate] | < 1 | –
13 | O=C1CNC(=O)N1Cc1cc2ncnc(-c3cccc(OC(F)(F)F)c3)c2s1 [Example 403, 3-[[4-[3-(trifluoromethoxy)phenyl]thieno[3,2-d]pyrimidin-6-yl]methyl]imidazolidine-2,4-dione] | 1 to 10 | –
14 | Cc1cc([N+](=O)[O-])cc(-c2ccnc3cc(Cn4c(=O)ccn(CC(F)(F)F)c4=O)sc23)c1Oc1ccnn1C [Example 404, 3-[[7-[3-methyl-2-(2-methylpyrazol-3-yl)oxy-5-nitro-phenyl]thieno[3,2-b]pyridin-2-yl]methyl]-1-(2,2,2-trifluoroethyl)pyrimidine-2,4-dione; 2,2,2-trifluoroacetic acid] | – | < 1
15 | Cc1cc(Cl)cc(-c2ccnc3cc(Cn4c(=O)ccn(CC(F)(F)F)c4=O)sc23)c1OC1CNCC[C@@]1(C)F (stereo partly drawn) [Example 405, 3-[[7-[5-chloro-2-[[(4R)-4-fluoro-4-methyl-3-piperidyl]oxy]-3-methyl-phenyl]thieno[3,2-b]pyridin-2-yl]methyl]-1-(2,2,2-trifluoroethyl)pyrimidine-2,4-dione; 2,2,2-trifluoroacetic acid] | – | < 1
16 | Cc1cc(Cl)cc(-c2ccnc3cc(Cn4c(=O)ccn(CC(F)(F)F)c4=O)sc23)c1OC1CNC[C@@]1(C)F (stereo partly drawn) [Example 406, 3-[[7-[5-chloro-2-[(4R)-4-fluoro-4-methyl-pyrrolidin-3-yl]oxy-3-methyl-phenyl]thieno[3,2-b]pyridin-2-yl]methyl]-1-(2,2,2-trifluoroethyl)pyrimidine-2,4-dione; 2,2,2-trifluoroacetic acid] | – | < 1
17 | Cc1cc(Cl)cc(-c2ccnc3c(F)c(CO)sc23)c1O[C@@H]1CNC[C@@H]1F [Example 407, [7-[5-chloro-2-[(3R,4S)-4-fluoropyrrolidin-3-yl]oxy-3-methyl-phenyl]-3-fluoro-thieno[3,2-b]pyridin-2-yl]methanol] | – | < 1
18 | Cc1cc(Cl)cc(-c2ccnc(CCCN3C(=O)CCC3=O)c2)c1OC1CNC[C@@H]1F (stereo partly drawn) [Example 408, 1-[3-[4-[5-chloro-2-[(4S)-4-fluoropyrrolidin-3-yl]oxy-3-methyl-phenyl]-2-pyridyl]propyl]pyrrolidine-2,5-dione; 2,2,2-trifluoroacetic acid] | – | 1 to 10
19 | Cc1cc(Cl)cc(-c2ccncc2CCCN2C(=O)CCC2=O)c1OC1CNC[C@@H]1F (stereo partly drawn) [Example 409, 1-[3-[4-[5-chloro-2-[(4S)-4-fluoropyrrolidin-3-yl]oxy-3-methyl-phenyl]-3-pyridyl]propyl]pyrrolidine-2,5-dione; 2,2,2-trifluoroacetic acid] | – | 1 to 10
20 | Cc1cc(Cl)cc(-c2ccnc(CCCN3C(=O)CCC3=O)c2)c1OC1CCNCC1 [Example 410, 1-[3-[4-[5-chloro-3-methyl-2-(4-piperidyloxy)phenyl]-2-pyridyl]propyl]pyrrolidine-2,5-dione; 2,2,2-trifluoroacetic acid] | – | 1 to 10
21 | Cc1cc(Cl)cc(-c2ccncc2CCCN2C(=O)CCC2=O)c1OC1CCNCC1 [Example 411, 1-[3-[4-[5-chloro-3-methyl-2-(4-piperidyloxy)phenyl]-3-pyridyl]propyl]pyrrolidine-2,5-dione; 2,2,2-trifluoroacetic acid] | – | 1 to 10
22 | Cc1cc(Cl)cc(-c2ncnc3cc(CN4C(=O)C5CC5C4=O)sc23)c1OC1CCCNC1 (centres unmarked) [Example 412, 3-[[4-[5-chloro-3-methyl-2-(3-piperidyloxy)phenyl]thieno[3,2-d]pyrimidin-6-yl]methyl]-3-azabicyclo[3.1.0]hexane-2,4-dione] | – | < 1
23 | Cc1cc(Cl)cc(-c2ccnc3cc(CN4C(=O)CCC4=O)sc23)c1OC1CC(N)C1 (centres unmarked) [Example 413, 1-[[7-[2-(3-aminocyclobutoxy)-5-chloro-3-methyl-phenyl]thieno[3,2-b]pyridin-2-yl]methyl]pyrrolidine-2,5-dione dihydrochloride] | – | < 1
24 | Cc1cc(Cl)cc(-c2ccnc3cc(CN4C(=O)C[C@@H](F)C4=O)sc23)c1OC1CCNCC1 [Example 414, (3R)-1-[[7-[5-chloro-3-methyl-2-(4-piperidyloxy)phenyl]thieno[3,2-b]pyridin-2-yl]methyl]-3-fluoro-pyrrolidine-2,5-dione] | – | < 1
25 | Cc1cc(Cl)cc(-c2ccnc3cc(CN4C(=O)CCC4=O)sc23)c1O[C@@H]1CNCC[C@H]1C [Example 415, 1-[[7-[5-chloro-3-methyl-2-[[(3S,4R)-4-methyl-3-piperidyl]oxy]phenyl]thieno[3,2-b]pyridin-2-yl]methyl]pyrrolidine-2,5-dione] | – | < 1
26 | Cc1cc(Cl)cc(-c2ccnc3cc(CN4C(=O)CCC4=O)sc23)c1O[C@H]1CC[C@@H](C)NC1 [Example 416, 1-[[7-[5-chloro-3-methyl-2-[[(3S,6R)-6-methyl-3-piperidyl]oxy]phenyl]thieno[3,2-b]pyridin-2-yl]methyl]pyrrolidine-2,5-dione] | – | < 1
